Assay results taken from patent US20140163082A1, “PYRAZOLYL COMPOUNDS FOR USE IN REVERSING REACTIVE GLIOSIS” (priority 2011, published 2014).

How the values were obtained:
rMC-1 cells = assay: Viability assay (DAPI exclusion test), rMC-1; details: rMC-1 cells in culture after incubation
R28 cells = assay: Viability assay (DAPI exclusion test), R28; details: R28 cells in culture after incubation

COc1cccc2c1C(=O)c1c(O)c3c(c(O)c1C2=O)C[C@@](O)(C(=O)CO)C[C@@H]3O[C@H]1C[C@H](N)[C@H](O)[C@H](C)O1 [Doxorubicin]
cell viability (DAPI exclusion) (rMC-1 cells): significant nonviability staining | cell viability (DAPI exclusion) (R28 cells): significant nonviability staining
